7 compounds from patent US5516796A, “Thioprostaglandins and -prostaglandin-like compounds and therapeutic uses thereof” (Kabi Pharmacia AB, priority 1994, dated 1996) can be followed below.

The subject of series [1] is eye. The experiment in a line: Maximum reduction of intraocular pressure in cats after topical application. It counts as in vivo. The note with it: for Intraocular pressure, Exp Eye / Maximum reduction of intraocular pressure, Difference (Exp Eye vs Cont Eye): 1-3 hours after application, mean ± SEM, n = 6. Here is the method:
(§1) Experiments were performed in cats and rabbits. The test compounds were administered topically to the eye. The compounds were tested by using a single dose of each concentration. The intraocular pressure in cats was measured with a pneumotonometer (Digilab Modular One, BioRad). Before the measurement the cornea was anaesthetized with 1-2 drops of oxibuprocain. The ocular irritation (discomfort) caused by the test compounds was assessed without anaesthesia in the same animals. The irritation was graded on an arbitrary scale 0-3, 0 indicating absence of irritation, and 3 indicating maximum irritation as obvious from complete lid closure. Surface hyperemia of the eye (redness of the eye) was evaluated in rabbits. The eye was photographed at regular intervals and the degree of hyperemia was evaluated from the color photographs in a masked way. The hyperemia was evaluated on an arbitrary scale 0-5, 0 indicating absence of hyperemia and 5 marked hyperemia and conjunctival chemosis. All compounds were formulated in physiologic saline using polysorbate 80 as solubilizer. The same volume of the vehicle only was applied topically on the contralateral control eye.
Maximum reduction of intraocular pressure in cats 1-3 hours after
application of different thioprostaglandin compounds (Mean ± SEM; n =

Series [2] has as its system eye. The experiment in a line: Ocular irritation (discomfort) after topical application, scale 0-3. It counts as in vivo, cats. Conditions: for Maximum ocular irritation, Difference (experimental vs contralateral control eye): cats, topical, mean ± SEM, n = 6; for Ocular irritation grade (maximum irritation): same test system. How it is done: as §1
Maximum ocular irritation after topical
application of different thioprostaglandin compounds in
cats. The values represent the difference between the
experimental and contralateral control eyes (Mean ± SEM,

The test system of the next series is rat gastric fundus. The experiment in a line: In vitro bioassay, rat gastric fundus. From the text:
(§2) In vitro bioassay studies of thioprostaglandins according to this invention have shown that such thioprostaglandins exert biological effects on several mammalian tissues and organ systems. […] These biological effects have no known relationship to the IOP lowering effects of these prostaglandins.

The next series deals with cat iris sphincter. The experiment in a line: In vitro bioassay, cat iris sphincter.
Source text: as §2

A further series has as its system bovine iris sphincter. The experiment in a line: In vitro bioassay, bovine iris sphincter.
Source text: as §2

Series [3] deals with circular preparation of the guinea pig ileum. The experiment in a line: In vitro bioassay, guinea pig ileum circular preparation.
Source text: as §2

The test system of a further series is platelet aggregation. The experiment in a line: In vitro bioassay, platelet aggregation. Type of series: cell-based.
Source text: as §2

Series [4] has as its system eye. The experiment in a line: Surface hyperemia of the eye after topical application, scale 0-5. It counts as in vivo, rabbits. The note with it: 0.5 μg; for Maximum surface hyperemia of the eye, Difference (Exp Eye vs Cont Eye) / Maximum surface hyperemia of the eye, Exp Eye: rabbits, topical, mean ± SEM, n = 6; for Ocular surface hyperemia grade: same test system. Here is the method: as §1
Maximum surface hyperemia of the eye after
topical application of different thioprostaglandins in
rabbits. (Mean ± SEM, n = 6).

As to `CCCCC[C@H](O)/C=C/[C@H]1C(SCc2ccccc2)CC(=O)[C@@H]1C/C=C\CCCC(=O)OCc1ccccc1` (some centres unmarked) [Compound 3, 11-deoxy-11-thiobenzyl-PGE2 benzyl ester], the “Intraocular pressure, Exp Eye” value in the series with eye [1] (3 ug) stood at 14.7 ± -0.7 mmHg; with eye [1] (5 ug), 13.0 ± -0.4 mmHg. Moreover, the results for the “Maximum reduction of intraocular pressure, Difference (Exp Eye vs Cont Eye)” value in the series with eye [1] (3 ug) and in the series with eye [1] (5 ug) were -3.7 ± -1.3 mmHg and -3.8 ± -0.5 mmHg, respectively. Moreover, in the series on eye [1] (24 hour), the “24 hour reduction of the intraocular pressure (in words)” value is “Except for compound 3, all compounds caused 24 hour reduction of the intraocular pressure”. Further, the figures for the “Maximum ocular irritation, Difference (experimental vs contralateral control eye)” value (“Maximum ocular irritation, Difference” below) in the series on eye [2] (3 μg) and in the series with eye [2] (5 μg) were 0.08 ± -0.08 and 1.33 ± -0.1, respectively. The “Stimulation of the rat gastric fundus” value in the series on rat gastric fundus is reported as “stimulate”. The “Stimulation of the cat iris sphincter” value in the series on cat iris sphincter is “stimulate”. For the same compound, in the series on bovine iris sphincter, the “Stimulation of the bovine iris sphincter” value is recorded as “stimulate”. Also, in series [3], the “Stimulation of the circular preparation of the guinea pig ileum” value is on record as “stimulate”. Further, in the series on platelet aggregation, the “Effect on platelet aggregation” value was “affect platelet aggregation”.
Regarding `CCCCC[C@H](O)/C=C/[C@H]1C(SCC(N)C(=O)OCC)CC(=O)[C@@H]1C/C=C\CCCC(=O)OCc1ccccc1` (some centres unmarked) [Compound 4], the “Intraocular pressure, Exp Eye” value in the series on eye [1] (3 ug) turned out to be 16.3 ± -0.7 mmHg; with eye [1] (10 ug), 14.0 ± -0.7 mmHg. Moreover, the “Maximum reduction of intraocular pressure, Difference (Exp Eye vs Cont Eye)” value is listed as -4.3 ± -1.6 mmHg with eye [1] (3 ug) and -5.8 ± -1.1 mmHg with eye [1] (10 ug). Moreover, the “Maximum ocular irritation, Difference” value came to 0.75 ± -0.1 with eye [2] (3 μg) and 0.58 ± -0.08 in the series with eye [2] (10 μg). The “Stimulation of the rat gastric fundus” value with rat gastric fundus is given as “stimulate”. The “Stimulation of the cat iris sphincter” value with cat iris sphincter is “stimulate”. Further, the “Stimulation of the bovine iris sphincter” value with bovine iris sphincter is on record as “stimulate”. In addition, the “Stimulation of the circular preparation of the guinea pig ileum” value in series [3] is “stimulate”. In addition, the “Effect on platelet aggregation” value with platelet aggregation is “affect platelet aggregation”.
As for `CCCCC[C@H](O)/C=C/[C@H]1C(SCCC(=O)OCC)CC(=O)[C@@H]1C/C=C\CCCC(=O)OC` (some centres unmarked) [Compound 5, 11-Deoxy-11-[3-thio-(1-ethylpropionate)] PGE2 methyl ester], the “Reduction of intraocular pressure (in words)” value in the series on eye [1] is recorded as “The strongest effect”. For the same compound, the “Reduction of intraocular pressure at low dose (in words)” value in the series with eye [1] (1 μg) is “markedly reduced the pressure”. Besides, the “Intraocular pressure, Exp Eye” value with eye [1] (1 ug) is reported as 12.7 ± -1.0 mmHg; in the series on eye [1] (3 ug), 11.5 ± -1.6 mmHg; with eye [1] (10 ug), 12.3 ± -1.3 mmHg. Besides, the “Maximum reduction of intraocular pressure, Difference (Exp Eye vs Cont Eye)” value in the series with eye [1] (1 ug) is -9.5 ± -0.8 mmHg; in the series with eye [1] (3 ug), -9.2 ± -1.2 mmHg; with eye [1] (10 ug), -10.0 ± -0.9 mmHg. The “Maximum ocular irritation, Difference” value in the series with eye [2] (1 μg) worked out at 1.08 ± -0.2; in the series on eye [2] (3 μg), 0.58 ± -0.08; in the series with eye [2] (10 μg) it was 2.00 ± -0.1. For the same compound, in the series with eye [4], the “Maximum surface hyperemia of the eye, Difference (Exp Eye vs Cont Eye)” value is 0.3 ± -0.2. Besides, the “Maximum surface hyperemia of the eye, Exp Eye” value in the series on eye [4] came out at 1.1 ± -0.2.
For `CCCCC[C@H](O)/C=C/[C@H]1C(SCCO)CC(=O)[C@@H]1C/C=C\CCCC(=O)OC` (some centres unmarked) [Compound 6, 11-Deoxy-11-(thio-1-ethanol)-PGE2 methyl ester], in the series on eye [1] (1 ug), the “Intraocular pressure, Exp Eye” value worked out at 14.7 ± -1.0 mmHg and the “Maximum reduction of intraocular pressure, Difference (Exp Eye vs Cont Eye)” value was -5.8 ± -1.0 mmHg. Also, in the series with eye [1] (3 ug), the “Intraocular pressure, Exp Eye” value came out at 13.8 ± -0.9 mmHg and the “Maximum reduction of intraocular pressure, Difference (Exp Eye vs Cont Eye)” value was -6.0 ± -1.3 mmHg. In addition, the “Maximum ocular irritation, Difference” value with eye [2] (1 μg) is given as 0.92 ± -0.08. For the same compound, the “Maximum ocular irritation, Difference” value in the series with eye [2] (3 μg) is 0.67 ± -0.1. In the series with eye [4], the “Maximum surface hyperemia of the eye, Difference (Exp Eye vs Cont Eye)” value turned out to be 0.8 ± -0.1 and the “Maximum surface hyperemia of the eye, Exp Eye” value was 1.7 ± -0.1.
Turning to `CCCCC[C@H](O)/C=C/[C@H]1C(Sc2ccccc2C(=O)OC)CC(=O)[C@@H]1C/C=C\CCCC(=O)OC` (some centres unmarked) [Compound 7, 11-Deoxy-11-[thio-2-(methylbenzoate)-]PGE2 methyl ester], in the series with eye [1] (1 ug), the “Intraocular pressure, Exp Eye” value is 16.2 ± -1.3 mmHg and the “Maximum reduction of intraocular pressure, Difference (Exp Eye vs Cont Eye)” value is on record as -4.3 ± -0.7 mmHg. Moreover, in the series on eye [2] (1 μg), the “Maximum ocular irritation, Difference” value was 1.08 ± -0.2. In the series with eye [4], the “Maximum surface hyperemia of the eye, Difference (Exp Eye vs Cont Eye)” value is on record as 0.6 ± -0.2 and the “Maximum surface hyperemia of the eye, Exp Eye” value amounted to 1.2 ± -0.2.
Regarding `CCCCC[C@H](O)/C=C/[C@H]1[C@H](O)CC(=O)[C@@H]1C/C=C\CCCC(=O)OC(C)C` [PGE2 -isopropyl ester, reference compound], the “Ocular irritation grade (maximum irritation)” value in the series on eye [2] (1 μg) is listed as 3 grade. Also, the “Ocular surface hyperemia grade” value in the series on eye [4] is recorded as at least 2.9 grade.
For `CCCCC[C@H](O)/C=C/[C@@H]1[C@@H](C/C=C\CCCC(=O)OC(C)C)[C@@H](O)C[C@H]1O` [PGF2α -isopropyl ester, reference compound], the “Ocular irritation grade (maximum irritation)” value in the series with eye [2] (1 μg) was found to be 3 grade. Moreover, the “Ocular surface hyperemia grade” value with eye [4] is recorded as at least 2.9 grade.
